The assay has as its target T1, 18-kDa translocator protein (TSPO) (Rattus norvegicus, UniProt P16257).
T1 construct: native TSPO in rat C6 glioma cell membranes
Briefly: [3H]-PK […] radioligand displacement on C6 glioma membrane extracts. As to conditions: read-out: Ki (nM) for TSPO. The class given is binding. (In general: Loss of bound radioactivity is the signal in a displacement assay; it reports binding, not function.)

Broadly, the Ki is a dissociation constant, usually derived from enzyme kinetics or from competition with a known ligand.

`CCCN(CCC)C(=O)Cc1c(-c2ccc(Cl)cc2)nc2c(NC(=O)C[N+]34Cc5cccc[n+]5[Re-5]3([C]#[O+])([C]#[O+])([C]#[O+])[n+]3ccccc3C4)cccn12` (centres unmarked) [compound 2, Re-CB256]: the Ki came out at 159 ± 8.7 nM.

In the case of `CCCN(CCC)C(=O)Cc1c(-c2ccc(Cl)cc2)nc2c(NC(=O)CN(Cc3ccccn3)Cc3ccccn3)cccn12` [compound 3], the Ki worked out at 148 ± 11.3 nM.

Source of the values: PMC4964461, “Synthesis and Evaluation of Tricarbonyl ^99mTc-Labeled 2-(4-Chloro)phenyl-imidazo[1,2-a]pyridine Analogs as Novel SPECT Imaging Radiotracer for TSPO-Rich Cancer” (International Journal of Molecular Sciences, 2016).
